Measurements published in patent US8318668B2 (Trustees of Tufts College, priority 2005, dated 2012).
Square brackets hold non-standard residues; d marks the D form. Ends that are not written are not given here. Peptide text beside a SMILES is read from it. Tle = CC(C)(C)[C@H](N)C(=O)O

Columns and labels:
rat DPP IV = rat DPP IV (Rattus norvegicus, UniProt P14740); assay: Digestion of model hexapeptides by rat DPP IV (LCMS); settings: for half-life: pH 8
Source text: The data were fit to a single phase exponential equation.
DPP-IV cleaves the N-terminal dipeptide from peptides with either Pro or Ala in the penultimate position (P2).

db mice [1] = assay: Time course of blood glucose lowering in db mice; settings: 8 μg injected; for duration of action (in words): db / diabetic mice
Method: At each time point the percent change in blood glucose was determined for 10 mice and the average change±SEM is plotted.
At each time point, the percentage change in blood glucose was determined for 10 mice and the average change±SEM is plotted.
In an exemplary embodiment, for treatment of the mice with a regimen including a peptide hormone analog or control, sub-orbital sinus blood samples are taken before and at some time (e.g., 60 minutes) after dosing of each animal. Blood glucose measurements can be made by any of several conventional techniques, such as using a glucose meter. The blood glucose levels of the control and peptide hormone analog dosed animals are compared

db mice [2] = assay: Dose response of blood glucose lowering in diabetic (db) mice; type: in vivo; settings: blood glucose 60 minutes post injection
Source text: The data were fit to a sigmoidal dose response curve.

human GLP-1 receptor = human GLP-1 receptor (Homo sapiens, UniProt P43220); settings: peptide concentration 300 nM
human GLP-1 receptor, sequence (P43220 24-463): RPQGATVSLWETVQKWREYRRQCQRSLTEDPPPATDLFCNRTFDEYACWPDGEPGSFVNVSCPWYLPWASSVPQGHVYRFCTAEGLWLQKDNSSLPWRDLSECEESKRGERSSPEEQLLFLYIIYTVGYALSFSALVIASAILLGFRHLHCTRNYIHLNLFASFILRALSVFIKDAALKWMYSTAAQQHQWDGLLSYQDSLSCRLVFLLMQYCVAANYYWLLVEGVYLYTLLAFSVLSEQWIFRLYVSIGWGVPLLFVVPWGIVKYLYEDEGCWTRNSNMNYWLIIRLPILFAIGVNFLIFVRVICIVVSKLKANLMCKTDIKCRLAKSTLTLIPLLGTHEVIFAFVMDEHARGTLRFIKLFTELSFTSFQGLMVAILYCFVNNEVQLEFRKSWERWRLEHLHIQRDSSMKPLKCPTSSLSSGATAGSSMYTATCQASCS
Method: Peptides were tested for agonist activity at a concentration of 300 nM. The data represent the mean±SEM with n=4.
Data values∓SEM are plotted and fit to a sigmoidal dose-response curve.

rat DPP IV, sequence (P14740 whole entry): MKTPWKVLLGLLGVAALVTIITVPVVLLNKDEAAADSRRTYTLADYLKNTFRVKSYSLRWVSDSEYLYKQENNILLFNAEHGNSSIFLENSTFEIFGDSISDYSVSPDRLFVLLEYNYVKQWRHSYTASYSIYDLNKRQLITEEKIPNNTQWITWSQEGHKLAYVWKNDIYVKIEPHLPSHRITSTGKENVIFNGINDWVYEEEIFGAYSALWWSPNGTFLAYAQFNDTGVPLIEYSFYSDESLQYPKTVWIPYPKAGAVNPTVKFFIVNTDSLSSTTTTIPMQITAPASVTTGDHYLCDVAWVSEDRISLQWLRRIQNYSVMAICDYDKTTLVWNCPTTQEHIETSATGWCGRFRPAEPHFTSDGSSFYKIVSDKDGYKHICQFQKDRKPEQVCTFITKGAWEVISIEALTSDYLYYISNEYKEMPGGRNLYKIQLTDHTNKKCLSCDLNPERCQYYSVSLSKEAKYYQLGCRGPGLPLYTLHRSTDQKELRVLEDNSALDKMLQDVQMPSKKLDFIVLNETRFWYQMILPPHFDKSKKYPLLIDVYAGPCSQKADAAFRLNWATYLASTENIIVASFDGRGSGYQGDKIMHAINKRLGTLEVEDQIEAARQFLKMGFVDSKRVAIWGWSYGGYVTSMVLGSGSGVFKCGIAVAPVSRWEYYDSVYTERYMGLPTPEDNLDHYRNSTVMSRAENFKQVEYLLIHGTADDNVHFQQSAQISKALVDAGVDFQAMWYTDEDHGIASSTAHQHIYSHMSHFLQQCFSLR

## C[C@H](N)C(=O)N1CCC[C@H]1C(=O)N[C@H](C(=O)N[C@@H](CO)C(=O)N[C@@H](Cc1c[nH]c2ccccc12)C(=O)N[C@@H](CO)C(N)=O)C(C)(C)C [Ala-Pro-Tle-Ser-Trp-Ser-NH2] (H-AP[Tle]SWS-NH2)
Rat DPP IV
  cleavage by rat DPP IV (in words): No reaction was observed

## CC[C@H](C)[C@H](NC(=O)[C@H](Cc1ccccc1)NC(=O)[C@H](CCC(=O)O)NC(=O)[C@H](CCCCN)NC(=O)[C@H](C)NC(=O)[C@H](C)NC(=O)[C@H](CCC(N)=O)NC(=O)CNC(=O)[C@H](CCC(=O)O)NC(=O)[C@H](CC(C)C)NC(=O)[C@H](Cc1ccc(O)cc1)NC(=O)[C@H](CO)NC(=O)[C@H](CO)NC(=O)[C@@H](NC(=O)[C@H](CC(=O)O)NC(=O)[C@H](CO)NC(=O)[C@@H](NC(=O)[C@H](Cc1ccccc1)NC(=O)[C@@H](NC(=O)CNC(=O)[C@H](CCC(=O)O)NC(=O)[C@H](C)NC(=O)[C@@H](N)Cc1c[nH]cn1)[C@@H](C)O)[C@@H](C)O)C(C)C)C(=O)N[C@@H](C)C(=O)N[C@@H](Cc1c[nH]c2ccccc12)C(=O)N[C@@H](CC(C)C)C(=O)N[C@H](C(=O)N[C@@H](CCCCN)C(=O)NCC(=O)N[C@@H](CCCNC(=N)N)C(N)=O)C(C)C [GLP-1, reference compound]
Db mice [1]
  duration of action (in words): largely gone by 60 minutes

## CC[C@H](C)[C@H](NC(=O)[C@H](Cc1ccccc1)NC(=O)[C@H](CCC(=O)O)NC(=O)[C@H](CCCCN)NC(=O)[C@H](C)NC(=O)[C@H](C)NC(=O)[C@H](CCC(N)=O)NC(=O)CNC(=O)[C@H](CCC(=O)O)NC(=O)[C@H](CC(C)C)NC(=O)[C@H](Cc1ccc(O)cc1)NC(=O)[C@H](CO)NC(=O)[C@H](CO)NC(=O)[C@@H](NC(=O)[C@H](CC(=O)O)NC(=O)[C@H](CO)NC(=O)[C@@H](NC(=O)[C@H](Cc1ccccc1)NC(=O)[C@@H](NC(=O)CNC(=O)[C@@H](NC(=O)[C@H](C)NC(=O)[C@@H](N)Cc1c[nH]cn1)C(C)(C)C(=O)O)[C@@H](C)O)[C@@H](C)O)C(C)C)C(=O)N[C@@H](C)C(=O)N[C@@H](Cc1c[nH]c2ccccc12)C(=O)N[C@@H](CC(C)C)C(=O)N[C@H](C(=O)N[C@@H](CCCCN)C(=O)NCC(=O)N[C@@H](CCCNC(=N)N)C(N)=O)C(C)C [TPA1B4, HAXGTFTSDVSSYLEGQAAKEFIAWLVKGR-NH2]
Db mice [1]; db mice
  blood glucose level reached (in words): within the range observed for normal mice
  duration of blood glucose lowering effect: at least 90 minutes
  time of return of blood glucose to hyperglycemic values: ≤ 4 h
Db mice [2]
  95% confidence interval of EC50 of glucose lowering effect: 0.1 to 1.92 µg
  EC50 of glucose lowering effect: 0.4 µg
Human GLP-1 receptor
  amount of GLP-1 receptor activation as measured by cAMP production: the same

## APISWS-NH2 [Ala-Pro-Ile-Ser-Trp-Ser-NH2]
Rat DPP IV
  half-life: 41 min

## APLSWS-NH2 [Ala-Pro-Leu-Ser-Trp-Ser-NH2]
Rat DPP IV
  half-life: 49 min

## HAXGTFTSDVSSYLEGQAAKEFIAWLVKGRZ-NH2 (HAXGTFTSDVSSYLEGQAAKEFIAWLVKGRX; β-dimethyl Asp, biphenylalanine, C-terminal amide) [DGS69]
Db mice [1]
  duration of action (in words): significantly increased the duration
